According to ChEMBL document CHEMBL1149740, “New phenolic glucosides from the leaves of Eurya tigang” (J Nat Prod, 1992):
Values after ≈ are worked out from the molar mass of the structure shown.

How the values were obtained:
T-24 = assay: Antitumor activity against human T24 cells; assay type: functional, cell-based
[1] = Antitumor activity against mouse keratinocytes; assay type: cell-based; conditions: Keratinocyte

Compound	IC50 (T-24) [µg/mL]	IC50 [1] [µg/mL]
O=C(/C=C/c1ccc(O)cc1)OC[C@H]1O[C@@H](OCCc2ccc(O)cc2)[C@H](O)[C@@H](O)[C@@H]1O [EUTIGOSIDE A]	28.7 (≈ 64.3 µM)	9.2 (≈ 20.6 µM)
O=C1C=CC(O)(CCO[C@@H]2O[C@H](COC(=O)/C=C/c3ccc(O)cc3)[C@@H](O)[C@H](O)[C@H]2O)C=C1 [EUTIGOSIDE B]	31.9 (≈ 69 µM)	9.4 (≈ 20.3 µM)
O=C1C=CC(O)(CCO[C@@H]2O[C@H](COC(=O)/C=C/c3ccccc3)[C@@H](O)[C@H](O)[C@H]2O)C=C1 [EUTIGOSIDE C]	29.3 (≈ 65.6 µM)	12.6 (≈ 28.2 µM)
